Values after ≈ are worked out from the molar mass of the structure shown. “Also recorded” adds a separate entry of the source. Like-named read-outs stand apart in the source and are kept apart here.
Columns and labels:
[1] = test system: Candida albicans (SC5314); assay: Broth microdilution MIC (Example 1); assay type: cell-based; conditions: in the presence of 1 μg/mL fluconazole; for MIC: Candida albicans, SC5314, read-out: MIC against Candida albicans (SC5314)
Procedure: (§1) MICs/minimum effective concentrations (MECs) were determined for each of the novel analogs against the three major human fungal pathogens, A. fumigatus, C. neoformans, and C. albicans. […] Thus, analogs of FK506 and FK520 can tolerate up to 100-fold reduction in antifungal activity and still be considered for in vivo testing. For C. neoformans, MICs were the most uniform and ranged from 0.2 to 2 μg/mL, which is between 4- and 40-fold reduced for antifungal activity.
(§2) In vitro antifungal activities of FK506, FK520, and analogs were assessed in RPMI 1640 (Sigma-Aldrich) for all strains tested. MICs/minimum effective concentrations (MECs) for each drug were measured using modified Clinical and Laboratory Standards Institute (CLSI) M38-A2 and M27-A3 standard in vitro antifungal susceptibility protocols. Broth microdilution assays for MIC/MEC assessment were performed as described previously (see, Juvvadi P R, et al., 2019, Nat Commun 10:4275). All antifungal assays with C. neoformans were performed at 37° C. Antifungal susceptibility testing for C. albicans was performed in the presence of a uniform 1 μg/mL concentration of fluconazole to sensitize the organism to calcineurin inhibition.

[2] = test system: Cryptococcus neoformans (H99); assay: Broth microdilution MIC (Example 1); assay type: cell-based; conditions: for MIC: Cryptococcus neoformans, read-out: MIC against Cryptococcus neoformans (H99)
Procedure: as §1, §2

[3] = test system: IL-2 expression in primary murine CD4+ T cells; assay: In vitro immunosuppressive activity, IL-2 expression (Example 1); assay type: cell-based, mouse; conditions: for IC50: Mus musculus, CD4+ T, 72 h, PMA and ionomycin stimulation, read-out: IL-2 50% inhibitory concentration (IC50)
Procedure: The potent immunosuppressive activity of FK506 and FK520 is what precludes these highly antifungal compounds from being utilized clinically to treat invasive fungal infections. Therefore, it is essential to understand the level of immunosuppressive activity for each of these analogs to determine if these C-22 modifications improve the fungal selectivity. Utilizing a primary murine T-cell model, IL-2 expression was assessed following growth in the presence of calcineurin inhibitors (FIG. 6A). Naive, primary CD4^+ T cells were collected from mice and grown for 72 h in the presence of FK506, FK520, or an analog. Following stimulation with phorbol 12-myristate 13-acetate (PMA) and ionomycin, the proportion of cells producing IL-2, a key calcineurin-dependent cytokine, was measured with flow cytometry. All compounds generated a dose-dependent reduction in IL-2 production.
Spleen and lymph nodes were collected from C57BL/6 mice and homogenized through a 40-μm filter. Pan-CD4^+ T cells were enriched using a MagniSort mouse CD4 T-cell kit (eBioscience) according to the manufacturer's protocol. Thereafter, CD4^+CD25^− CD44^loCD62L^hi naive T cells were sorted by fluorescence-activated cell sorting (FACS). The naive CD4^+ T cells were grown in Iscove's modified Dulbecco's medium (IMDM) supplemented with glutamine, penicillin, streptomycin, gentamicin, 2-mercaptoethanol, and 10% fetal bovine serum (FBS). Cells were then cultured on anti-hamster IgG-coated plates in the presence of hamster anti-CD3 epsilon and anti-CD28 antibodies (BD Biosciences), neutralizing anti-IL-4 antibody (eBioscience), recombinant IL-12 (10 ng/mL), and recombinant IL-2 (50 U/mL) for 72 h. During this period, cells were grown in the presence of 2× serially diluted FK506, FK520, or analog suspended in DMSO for 72 h. During the last 4 h of culture, phorbol 12-myristate 13-acetate (PMA; Sigma), ionomycin (Sigma), and GolgiStop (BD Biosciences) were added to the culture to facilitate detection of intracellular cytokines via flow cytometry. Live cells were stained with fluorescein isothiocyanate (FITC)-conjugated anti-CD4 antibody (eBioscience) and fixable viability dye eFluor 506 (eBioscience) on ice, followed by fixation and permeabilization using the Foxp3 transcription factor staining kit (eBioscience). Intracellular staining was performed at room temperature using phycoerythrin (PE)-conjugated anti-IL-2 antibody (eBioscience), followed by analysis with a BD LSRFortessa X-20 flow cytometer.

[4] = test system: Candida albicans; assay: MIC assay (Example 3); assay type: cell-based; conditions: for MIC: Candida albicans, SC5314, read-out: MIC against Candida albicans (SC5314)
Procedure: (§3) In vitro antifungal activity was assessed for all fungal strains in RPMI 1640 (Sigma-Aldrich R1383). MICs were measured using Clinical and Laboratory Standards Institute (CLSI) M38-A2 and M27-A3 standard in vitro antifungal susceptibility protocols. C. neoformans and A. fumigatus testing was performed at 37° C. MECs for A. fumigatus were recorded after 48 h of growth. C. albicans testing was performed at 30° C. with a uniform concentration of 2 μg/mL of fluconazole to sensitize the cells to calcineurin inhibition.
(§4) C. neoformans clinical isolate H99 and congenic-derived strain KN99α were used (see, Nielsen K, et al., 2003. Infect Immun 71:4831-4841). KN99α-derived frr1Δ deletion mutants with nourseothricin resistance markers as part of the Madhani deletion collection (NIH funding R01AI100272) were used. C. deneoformans strains used include JEC21 and derived C21F2 (CNB1-1) and C21F3 (frr1-3) strains (see, Odom A, et al., 1997. EMBO J 16:2576-2589; Moore T D, Edman J C. 1993. Mol Cell Biol 13:1962-1970; Fox D S, et al., 2001. Mol Microbiol 39:835-849). C. albicans strain SC5314 is the wild-type strain from which mutants YAG171 (rbp1/rbp1) and YAG237 (CNB1-1/CNB1) were derived (see, Cruz M C, et al., 2001. Antimicrob Agents Chemother 45:3162-3170). A. fumigatus strain akuB^Ku80 and a derived FKBP12 mutant fkbp12A were used during antifungal screening (see, Falloon K, et al., 2015. PLoS One 10:e0137869).

[5] = test system: Cryptococcus neoformans; assay: MIC assay (Example 3); assay type: cell-based; conditions: for antifungal activity at 37° C. versus 30° C.: C. neoformans; for MIC: Cryptococcus neoformans
Procedure: as §3, §4

[6] = test system: Aspergillus fumigatus; assay: MEC assay (Example 3)
[7] = MIC80, 30° C. with 2 μg/mL fluconazole
[8] = MIC90, 37° C., read-out: MIC against Cryptococcus neoformans (H99)

Row | Compound | MIC [1] | MIC ([2]; 37° C.) | IC50 [3] | MIC [4, 7] | antifungal activity at 37° C. versus 30° C. [5] | MIC [5, 8] | MIC ([5]; Table 8, read-out: H99 MIC90) | MEC against Aspergillus fumigatus (akuB^Ku80) ([6]; strain akuB^Ku80) | IL-2 inhibition / immunosuppression [3] | also measured
1 | CC[C@@H]1/C=C(\C)C[C@H](C)C[C@H](OC)[C@H]2O[C@@](O)(C(=O)C(=O)N3CCCC[C@H]3C(=O)O[C@H](/C(C)=C/[C@@H]3CC[C@@H](O)[C@H](OC)C3)[C@H](C)[C@@H](O)C/C1=N/NC(C)=O)[C@H](C)C[C@@H]2OC [JH-FK-05] | 0.8 µg/mL | 1 µg/mL (≈ 1.18 µM) | 20 nM | – | – | – | – | – | – | fold reduction of antifungal activity compared to FK506 ([2]; C. neoformans): 20 fold; broad-spectrum antifungal activity / MIC ranking ([2]; C. neoformans, C. albicans, A. fumigatus): maintained high levels of broad-spectrum antifungal activity across the three species
2 | CC[C@@H]1/C=C(\C)C[C@H](C)C[C@H](OC)[C@H]2O[C@@](O)(C(=O)C(=O)N3CCCC[C@H]3C(=O)O[C@H](/C(C)=C/C3CC[C@@H](O)[C@H](OC)C3)[C@H](C)[C@@H](O)C/C1=N/NC(=O)OC)[C@H](C)C[C@@H]2OC (some centres unmarked) [JH-FK-08] | – | – | – | 0.4 µg/mL (≈ 0.463 µM) | potent antifungal activity against C. neoformans at 37 °C but not at 30 °C | 0.8 µg/mL (≈ 0.926 µM) | 0.8 µg/mL (≈ 0.926 µM) | 1.3 µg/mL | – | MIC/MEC [4]: >25 µg/mL; MIC/MEC ([5]; strain frr1Δ (KN99α frr1Δ::NAT), MIC90, 37° C.): >25 µg/mL; MIC/MEC ([6]; strain akuB^Ku80): 1.25 µg/mL (≈ 1.45 µM); MIC/MEC ([6]; strain Δfkbp12 (akuB^Ku80 fkbp12Δ)): >20 µg/mL
3 | C=CC[C@@H]1/C=C(\C)C[C@H](C)C[C@H](OC)[C@H]2O[C@@](O)(C(=O)C(=O)N3CCCC[C@H]3C(=O)O[C@H](/C(C)=C/[C@@H]3CC[C@@H](O)[C@H](OC)C3)[C@H](C)[C@@H](O)C/C1=N/NC(=O)CC)[C@H](C)C[C@@H]2OC [JH-FK-02] | 1.6 µg/mL | 2 µg/mL (≈ 2.29 µM) | 42.6 nM | – | – | – | – | – | – | fold increase of IL-2 IC50 / reduction of immunosuppression compared to FK506 ([3]; relative to FK506): > 380 fold
4 | CC[C@@H]1/C=C(\C)C[C@H](C)C[C@H](OC)[C@H]2O[C@@](O)(C(=O)C(=O)N3CCCC[C@H]3C(=O)O[C@H](/C(C)=C/[C@@H]3CC[C@@H](O)[C@H](OC)C3)[C@H](C)[C@@H](O)CC1=O)[C@H](C)C[C@@H]2OC [FK520, reference compound] | – | – | – | – | potent antifungal activity against C. neoformans at 37 °C but not at 30 °C | – | – | – | highest level of IL-2 inhibition; also recorded: slightly reduced compared to that of FK506 | MIC against Candida albicans (SC5314) [1]: 0.02 µg/mL; MIC against Cryptococcus neoformans (H99) ([2]; 37° C.): 0.05 µg/mL (≈ 0.0631 µM); antifungal activity (MIC/MEC range) ([2]; range over C. neoformans, C. albicans and A. fumigatus): 0.016 to 0.05 µg/mL; MIC against Candida albicans (SC5314) [4, 7]: 0.02 µg/mL (≈ 0.0253 µM); MIC against Cryptococcus neoformans (H99) ([5]; MIC90, 37° C.): 0.05 µg/mL (≈ 0.0631 µM); H99 MIC90 ([5]; Table 8): 0.05 µg/mL; MEC against Aspergillus fumigatus (akuB^Ku80) [6]: 0.16 µg/mL
5 | C=CCC1C=C(C)CC(C)CC(OC)C2OC(O)(C(=O)C(=O)N3CCCCC3C(=O)OC(C(C)=CC3CCC(O)C(OC)C3)C(C)C(O)CC1=O)C(C)CC2OC (centres unmarked) [FK506, reference compound] | 0.02 µg/mL | 0.05 µg/mL (≈ 0.0622 µM) | – | 0.02 µg/mL (≈ 0.0249 µM) | potent antifungal activity against C. neoformans at 37 °C but not at 30 °C | 0.05 µg/mL (≈ 0.0622 µM) | 0.05 µg/mL (≈ 0.0622 µM) | 0.04 µg/mL | highest level of IL-2 inhibition | –
